Measured values taken from US8512723B2, “Antimicrobial compositions and methods” (3M Innovative Properties Company, priority 2003, dated 2013).

Assays:
[1] = tested on: MRSA #561 (clinical isolate of methicillin resistant staphylococcus); assay: Murine MRSA nasal colonization model; format: in vivo, mice; conditions: 10 μL per nare, three times daily for two days; nares cultured three days after treatment
Procedure: 1999 Infect and Immunity 67(10) 5001-5006. Prior to evaluation of the active compositions the lowest number of S. aureus required to establish nasal colonization in 70% of mice detectable 5 days after challenge and persisting at least 10 days after challenge was determined. This was using an innoculum of 10^8 cfu/nare. Mice (239 described as 25 g to 30 g Hsd:ICR) were challenged intranasally with 10^8 MRSA #561 (a clinical isolate of methicillin resistant staphylococcus obtained from Mayo Clinic, Rochester, Minn.) and arbitrarily assigned to one of five treatment regimens: mupirocin ointment, bland ointment, antimicrobial compositions of Examples 31, 32, and 33. The bland ointment consisted of petrolatum (89%), glycerin (10%) and DOSS (1%). Mice received either no treatment (none) or treatment with 10 μL per nare of warmed (42° C.) ointment (one of five) to each nare, three times daily for two days Three days after treatment, both anterior nares were swabbed and cultured for MRSA. Colonies appearing to be S. aureus were confirmed with a latex agglutination test. S. aureus was detected in 160 colonization cultures from 239 mice challenged. These mice continued to be studied. The results of the treatments are listed in Table 9e as the number of animals with no MRSA detected after treatment (successful), the percent of the animals treated successfully, the number of animals with MRSA (failure), and the percent of animals whose treatment failed.

30 MRSA isolates = assay: Emergence of Resistance Test; format: cell-based, Staphylococcus aureus
Procedure: (§1) Overnight cultures of each of 30 MRSA isolates and 30 Methicillin Susceptible Stapyloccus aureus (MSSA) isolates were grown in Mueller-Hinton broth (MHB) at 35° C. in room air. Bacteria in the broth were concentrated by centrifugation for 15 minutes at 2,200 revolustions per minute (rpm). The spent broth was decanted and replaced with fresh MHB containing 0.5 μL per mL of each of three antimicrobial compositions (Examples 31(IPA), 32(IPA), and 33(IPA)) or 0.125 μg/mL of mupirocin lithium salt (Sigma Aldrich, Milwaukee, Wis.). The cultures were returned to the incubator for 18 hours. Following incubation, each culture was again centrifuged and the bacterial pellet was divided into two aliquots. One aliquot was resuspended in MHB containing fresh antimicrobial compositions at twice the previous concentrations and returned to the incubator for continued exposure.
(§2) The second aliquot was screened for MRSA and MSSA by incubation with 2 mL of MHB containing 4 μg/mL of mupirocin or 1,200 μg/mL of Examples 31(IPA) or 32(IPA) or 33 (IPA). The resistance screens were incubated overnight at 35° C. in room air. After incubation, each screen was subcultured to fresh MHB and incubated for 4 to 6 hours. Minimum inhibitory concentration (MIC) testing was performed on logarithmically growing bacteria recovered from the screen. This procedure was repeated for 8 days. After 8 days of serial exposure, each bacterial pellet was resuspended in bland MHB and incubated overnight. The MIC of each antimicrobial composition or mupirocin was determined as the MIC90 (range) before and daily during serial passage.
(§3) The IPA modified antimicrobial compositions were tested using the Emergence of Resistance Test. The results are shown at baseline (T0), after eight days (T8) and the ratio of T0 to T8 in Table 9d.

[2] = tested on: 30 Methicillin Susceptible Stapyloccus aureus (MSSA) isolates; assay: Emergence of Resistance Test; format: cell-based, Staphylococcus aureus
Procedure: as §1, §2, §3

[3] = MIC90 after eight days (T8) of serial exposure, unit assumed
[4] = MIC90 at baseline (T0), unit assumed

C/C(=C\C(=O)OCCCCCCCCC(=O)O)C[C@@H]1OC[C@H](C[C@@H]2O[C@H]2[C@@H](C)[C@H](C)O)[C@@H](O)[C@H]1O [Mupirocin, mupirocin]
Number of Mice with MRSA [1]: 19 | Number of Mice without MRSA [1]: 19 | Percent Treated Successfully [1]: 50% | Percent Whose Treatment Failed [1]: 50% | MRSA Final (T8) MIC (30 MRSA isolates; [3]): 64 µg/mL | MRSA Initial (T0) MIC (30 MRSA isolates; [4]): 0.25 µg/mL | Increase of the MIC (30 MRSA isolates; eight days of serial exposure): increased dramatically | MSSA Final (T8) MIC [2, 3]: 128 µg/mL | MSSA Initial (T0) MIC [2, 4]: 0.25 µg/mL | MSSA MIC fold increase (T8/T0) ([2]; ratio of MIC at T0 and T8): 512
